Measurements published in patent US11541028B2, “Peptide pharmaceuticals for treatment of NASH and other disorders” (Mederis Diabetes LLC, priority 2018, dated 2023).
Like-named read-outs stand apart in the source and are kept apart here. One block for each compound: values may come before it. Bridge positions count the residues as written; N and C are the ends. Square brackets hold non-standard residues; d marks the D form. Peptide text beside a SMILES is read from it. * marks the point of attachment. βGlcA(1-O-hexadecyl) = CCCCCCCCCCCCCCCCO[C@@H]1O[C@H](C(=O)*)[C@@H](O)[C@H](O)[C@H]1O; Aib = CC(C)(N)C(=O)O

What was measured:
human GLP-1 receptor = target: T1, human GLP-1 receptor (Homo sapiens, UniProt P43220); experiment: DiscoveRx LeadHunter cellular assay, cAMP stimulation, GLP-1 receptor in CHO cells; assay type: cell-based; conditions: human GLP-1 receptor in CHO cells (DiscoveRx); read-out: EC50 cAMP GLP-1 R
T1 construct: host or cells: CHO cells
T1 sequence (P43220 24-463): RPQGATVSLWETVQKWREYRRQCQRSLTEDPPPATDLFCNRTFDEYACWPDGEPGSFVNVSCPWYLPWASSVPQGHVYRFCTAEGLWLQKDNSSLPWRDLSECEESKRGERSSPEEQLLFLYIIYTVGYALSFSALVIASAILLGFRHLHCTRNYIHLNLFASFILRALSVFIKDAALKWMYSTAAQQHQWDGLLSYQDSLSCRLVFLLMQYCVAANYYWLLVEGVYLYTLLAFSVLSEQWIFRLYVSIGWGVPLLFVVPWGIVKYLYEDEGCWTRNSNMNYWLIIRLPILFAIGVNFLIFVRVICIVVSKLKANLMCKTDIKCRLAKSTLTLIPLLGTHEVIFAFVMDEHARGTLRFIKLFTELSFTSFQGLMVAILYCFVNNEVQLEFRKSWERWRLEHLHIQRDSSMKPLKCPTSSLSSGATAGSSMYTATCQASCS

human glucagon receptor = target: T2, human glucagon receptor (Homo sapiens, UniProt P47871); experiment: DiscoveRx LeadHunter cellular assay, cAMP stimulation, glucagon receptor in CHO cells; assay type: cell-based
T2 construct: host or cells: CHO cells
T2 sequence (P47871 26-477): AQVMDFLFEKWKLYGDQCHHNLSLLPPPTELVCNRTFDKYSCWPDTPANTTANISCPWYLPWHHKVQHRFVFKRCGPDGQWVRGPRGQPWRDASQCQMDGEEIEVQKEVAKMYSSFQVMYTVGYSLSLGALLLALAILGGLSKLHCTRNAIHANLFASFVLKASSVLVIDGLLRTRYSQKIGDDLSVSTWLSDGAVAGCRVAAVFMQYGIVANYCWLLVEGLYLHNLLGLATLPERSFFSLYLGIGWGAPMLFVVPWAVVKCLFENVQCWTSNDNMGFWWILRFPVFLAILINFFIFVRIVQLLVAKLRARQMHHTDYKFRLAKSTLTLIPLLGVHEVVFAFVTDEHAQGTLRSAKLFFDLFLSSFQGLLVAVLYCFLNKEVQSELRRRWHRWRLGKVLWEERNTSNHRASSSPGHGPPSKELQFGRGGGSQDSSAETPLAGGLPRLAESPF

Compound: CCCCCCCCCCCCO[C@@H]1O[C@H](CO[C@H]2O[C@H](C(=O)NCCCC[C@@H]3NC(=O)[C@@H](NC(=O)[C@H](CC(=O)O)NC(=O)[C@H](CC(C)C)NC(=O)[C@H](Cc4ccc(O)cc4)NC(=O)[C@H](CCCCN)NC(=O)[C@H](CO)NC(=O)[C@H](Cc4ccc(O)cc4)NC(=O)[C@H](CC(=O)O)NC(=O)[C@H](CO)NC(=O)[C@@H](NC(=O)[C@H](Cc4ccccc4)NC(=O)[C@@H](NC(=O)CNC(=O)[C@H](CCC(N)=O)NC(=O)C(C)(C)NC(=O)[C@@H](N)Cc4c[nH]cn4)[C@@H](C)O)[C@@H](C)O)CCC(=O)NCCCC[C@@H](C(=O)N[C@@H](CCC(=O)O)C(=O)N[C@@H](Cc4ccccc4)C(=O)N[C@H](C(=O)N[C@@H](CCC(N)=O)C(=O)N[C@@H](Cc4c[nH]c5ccccc45)C(=O)N[C@@H](CC(C)C)C(=O)N[C@@H](CC(C)C)C(=O)N[C@@H](CCC(N)=O)C(=O)N[C@H](C(=O)O)[C@@H](C)O)[C@@H](C)CC)NC(=O)[C@H](C)NC(=O)[C@H](C)NC3=O)[C@H](O)[C@H](O)[C@H]2O)[C@@H](O)[C@H](O)[C@H]1O [EU-A1590]
- EC50 (human GLP-1 receptor): 0.094 nM
- EC50 (human glucagon receptor): 0.343 nM

Compound: CCCCCCCCCCCCCCCCO[C@@H]1O[C@H](CO[C@H]2O[C@H](C(=O)NCCCC[C@H](NC(=O)[C@@H](NC(=O)[C@H](Cc3ccccc3)NC(=O)[C@H](CCC(=O)O)NC(=O)[C@@H]3CCCCNC(=O)CC[C@H](NC(=O)[C@H](CC(=O)O)NC(=O)[C@H](CC(C)C)NC(=O)[C@H](Cc4ccc(O)cc4)NC(=O)[C@H](CCCCN)NC(=O)[C@H](CO)NC(=O)[C@H](Cc4ccc(O)cc4)NC(=O)[C@H](CC(=O)O)NC(=O)[C@H](CO)NC(=O)[C@@H](NC(=O)[C@H](Cc4ccccc4)NC(=O)[C@@H](NC(=O)CNC(=O)[C@H](CCC(N)=O)NC(=O)C(C)(C)NC(=O)[C@@H](N)Cc4c[nH]cn4)[C@@H](C)O)[C@@H](C)O)C(=O)N[C@@H](CCC(N)=O)C(=O)N[C@@H](C)C(=O)N[C@@H](C)C(=O)N3)[C@@H](C)CC)C(=O)N[C@@H](Cc3c[nH]c4ccccc34)C(=O)N[C@@H](CC(C)C)C(=O)N[C@@H](CC(C)C)C(=O)N[C@@H](CCC(N)=O)C(=O)N[C@H](C(=O)O)[C@@H](C)O)[C@H](O)[C@H](O)[C@H]2O)[C@@H](O)[C@H](O)[C@H]1O [EU-A1578]
- EC50 (human GLP-1 receptor): 0.008 nM
- EC50 (human glucagon receptor): 0.355 nM

Compound: CCCCCCCCCCCCCCO[C@@H]1O[C@H](CO[C@H]2O[C@H](C(=O)NCCCC[C@H](N)C(=O)NCCCC[C@H](NC(=O)[C@@H](NC(=O)[C@H](Cc3ccccc3)NC(=O)[C@H](CCC(=O)O)NC(=O)[C@@H]3CCCCNC(=O)CC[C@H](NC(=O)[C@H](CC(=O)O)NC(=O)[C@H](CC(C)C)NC(=O)[C@H](Cc4ccc(O)cc4)NC(=O)[C@H](CCCCN)NC(=O)[C@H](CO)NC(=O)[C@H](Cc4ccc(O)cc4)NC(=O)[C@H](CC(=O)O)NC(=O)[C@H](CO)NC(=O)[C@@H](NC(=O)[C@H](Cc4ccccc4)NC(=O)[C@@H](NC(=O)CNC(=O)[C@H](CCC(N)=O)NC(=O)C(C)(C)NC(=O)[C@@H](N)Cc4c[nH]cn4)[C@@H](C)O)[C@@H](C)O)C(=O)N[C@@H](CCC(N)=O)C(=O)N[C@@H](C)C(=O)N[C@@H](C)C(=O)N3)[C@@H](C)CC)C(=O)N[C@@H](Cc3c[nH]c4ccccc34)C(=O)N[C@@H](CC(C)C)C(=O)N[C@@H](CC(C)C)C(=O)N[C@@H](CCC(N)=O)C(=O)N[C@H](C(N)=O)[C@@H](C)O)[C@H](O)[C@H](O)[C@H]2O)[C@@H](O)[C@H](O)[C@H]1O [EU-A1602]
- EC50 (human GLP-1 receptor): 0.035 nM
- EC50 (human glucagon receptor): 0.162 nM

Compound: CCCCCCCCCCCCO[C@@H]1O[C@H](CO[C@H]2O[C@H](C(=O)NCCCC[C@H](N)C(=O)NCCCC[C@H](NC(=O)[C@@H](NC(=O)[C@H](Cc3ccccc3)NC(=O)[C@H](CCC(=O)O)NC(=O)[C@@H]3CCCCNC(=O)CC[C@H](NC(=O)[C@H](CC(=O)O)NC(=O)[C@H](CC(C)C)NC(=O)[C@H](Cc4ccc(O)cc4)NC(=O)[C@H](CCCCN)NC(=O)[C@H](CO)NC(=O)[C@H](Cc4ccc(O)cc4)NC(=O)[C@H](CC(=O)O)NC(=O)[C@H](CO)NC(=O)[C@@H](NC(=O)[C@H](Cc4ccccc4)NC(=O)[C@@H](NC(=O)CNC(=O)[C@H](CCC(N)=O)NC(=O)C(C)(C)NC(=O)[C@@H](N)Cc4c[nH]cn4)[C@@H](C)O)[C@@H](C)O)C(=O)N[C@@H](CCC(N)=O)C(=O)N[C@@H](C)C(=O)N[C@@H](C)C(=O)N3)[C@@H](C)CC)C(=O)N[C@@H](Cc3c[nH]c4ccccc34)C(=O)N[C@@H](CC(C)C)C(=O)N[C@@H](CC(C)C)C(=O)N[C@@H](CCC(N)=O)C(=O)N[C@H](C(N)=O)[C@@H](C)O)[C@H](O)[C@H](O)[C@H]2O)[C@@H](O)[C@H](O)[C@H]1O [EU-A1601]
- EC50 (human GLP-1 receptor): 0.007 nM
- EC50 (human glucagon receptor): 0.048 nM

Second part, the compound after the results:

- EC50 (human GLP-1 receptor): 0.037 nM
- EC50 (human glucagon receptor; read-out: EC50 cAMP Glucagon R, human glucagon receptor in CHO cells (DiscoveRx)): 0.175 nM
Compound: CCCCCCCCCCCCCCO[C@@H]1O[C@H](C(=O)NCCCC[C@H](N)C(=O)NCCCC[C@H](NC(=O)[C@@H](NC(=O)[C@H](Cc2ccccc2)NC(=O)[C@H](CCC(=O)O)NC(=O)[C@@H]2CCCCNC(=O)CC[C@H](NC(=O)[C@H](CC(=O)O)NC(=O)[C@H](CC(C)C)NC(=O)[C@H](Cc3ccc(O)cc3)NC(=O)[C@H](CCCCN)NC(=O)[C@H](CO)NC(=O)[C@H](Cc3ccc(O)cc3)NC(=O)[C@H](CC(=O)O)NC(=O)[C@H](CO)NC(=O)[C@@H](NC(=O)[C@H](Cc3ccccc3)NC(=O)[C@@H](NC(=O)CNC(=O)[C@H](CCC(N)=O)NC(=O)C(C)(C)NC(=O)[C@@H](N)Cc3c[nH]cn3)[C@@H](C)O)[C@@H](C)O)C(=O)N[C@@H](CCC(N)=O)C(=O)N[C@@H](C)C(=O)N[C@@H](C)C(=O)N2)[C@@H](C)CC)C(=O)N[C@@H](Cc2c[nH]c3ccccc23)C(=O)N[C@@H](CC(C)C)C(=O)N[C@@H](CC(C)C)C(=O)N[C@@H](CCC(N)=O)C(=O)N[C@H](C(N)=O)[C@@H](C)O)[C@@H](O)[C@H](O)[C@H]1O [EU-A1712]

- EC50 (human GLP-1 receptor): 0.026 nM
- EC50 (human glucagon receptor): 0.114 nM
Compound: CCCCCCCCCCO[C@@H]1O[C@H](C(=O)NCCCC[C@H](NC(=O)[C@@H](NC(=O)[C@H](Cc2ccccc2)NC(=O)[C@H](CCC(=O)O)NC(=O)[C@@H]2CCCCNC(=O)CC[C@H](NC(=O)[C@H](CC(=O)O)NC(=O)[C@H](CC(C)C)NC(=O)[C@H](Cc3ccc(O)cc3)NC(=O)[C@H](CCCCN)NC(=O)[C@H](CO)NC(=O)[C@H](Cc3ccc(O)cc3)NC(=O)[C@H](CC(=O)O)NC(=O)[C@H](CO)NC(=O)[C@@H](NC(=O)[C@H](Cc3ccccc3)NC(=O)[C@@H](NC(=O)CNC(=O)[C@H](CCC(N)=O)NC(=O)C(C)(C)NC(=O)[C@@H](N)Cc3c[nH]cn3)[C@@H](C)O)[C@@H](C)O)C(=O)N[C@@H](CCC(N)=O)C(=O)N[C@@H](C)C(=O)N[C@@H](C)C(=O)N2)[C@@H](C)CC)C(=O)N[C@@H](Cc2c[nH]c3ccccc23)C(=O)N[C@@H](CC(C)C)C(=O)N[C@@H](CC(C)C)C(=O)N[C@@H](CCC(N)=O)C(=O)N[C@H](C(=O)O)[C@@H](C)O)[C@@H](O)[C@H](O)[C@H]1O [EU-A1680]

- EC50 (human GLP-1 receptor): 0.011 nM
- EC50 (human glucagon receptor): 0.035 nM
Compound: CCCCCCCCCCCCO[C@@H]1O[C@H](C(=O)N[C@@H](CCC(=O)NCCCC[C@H](NC(=O)[C@@H](NC(=O)[C@H](Cc2ccccc2)NC(=O)[C@H](CCC(=O)O)NC(=O)[C@@H]2CCCCNC(=O)CC[C@H](NC(=O)[C@H](CC(=O)O)NC(=O)[C@H](CC(C)C)NC(=O)[C@H](Cc3ccc(O)cc3)NC(=O)[C@H](CCCCN)NC(=O)[C@H](CO)NC(=O)[C@H](Cc3ccc(O)cc3)NC(=O)[C@H](CC(=O)O)NC(=O)[C@H](CO)NC(=O)[C@@H](NC(=O)[C@H](Cc3ccccc3)NC(=O)[C@@H](NC(=O)CNC(=O)[C@H](CCC(N)=O)NC(=O)C(C)(C)NC(=O)[C@@H](N)Cc3c[nH]cn3)[C@@H](C)O)[C@@H](C)O)C(=O)N[C@@H](CCC(N)=O)C(=O)N[C@@H](C)C(=O)N[C@@H](C)C(=O)N2)[C@@H](C)CC)C(=O)N[C@@H](Cc2c[nH]c3ccccc23)C(=O)N[C@@H](CC(C)C)C(=O)N[C@@H](CC(C)C)C(=O)N[C@@H](CCC(N)=O)C(=O)N[C@H](C(N)=O)[C@@H](C)O)C(=O)O)[C@@H](O)[C@H](O)[C@H]1O [EU-A1717]

- EC50 (human GLP-1 receptor): 0.113 nM
- EC50 (human glucagon receptor): 1.9 nM
Compound: CCCCCCCCCCCCCCCCO[C@@H]1O[C@H](C(=O)NCCCC[C@H](NC(=O)[C@@H](NC(=O)[C@H](Cc2ccccc2)NC(=O)[C@H](CCC(=O)O)NC(=O)[C@@H]2CCCCNC(=O)CC[C@H](NC(=O)[C@H](CC(=O)O)NC(=O)[C@H](CC(C)C)NC(=O)[C@H](Cc3ccc(O)cc3)NC(=O)[C@H](CCCCN)NC(=O)[C@H](CO)NC(=O)[C@H](Cc3ccc(O)cc3)NC(=O)[C@H](CC(=O)O)NC(=O)[C@H](CO)NC(=O)[C@@H](NC(=O)[C@H](Cc3ccccc3)NC(=O)[C@@H](NC(=O)CNC(=O)[C@H](CCC(N)=O)NC(=O)C(C)(C)NC(=O)[C@@H](N)Cc3c[nH]cn3)[C@@H](C)O)[C@@H](C)O)C(=O)N[C@@H](CCC(N)=O)C(=O)N[C@@H](C)C(=O)N[C@@H](C)C(=O)N2)[C@@H](C)CC)C(=O)N[C@@H](Cc2c[nH]c3ccccc23)C(=O)N[C@@H](CC(C)C)C(=O)N[C@@H](CC(C)C)C(=O)N[C@@H](CCC(N)=O)C(=O)N[C@H](C(=O)NCCOCCOCCOCCOCCOCCOCCOCCOCCC(=O)O)[C@@H](C)O)[C@@H](O)[C@H](O)[C@H]1O [EU-A1647]

- EC50 (human GLP-1 receptor): 1.02 nM
- EC50 (human glucagon receptor): 10 nM
Compound: CCCCCCCCCCCCCCCCO[C@@H]1O[C@H](C(=O)NCCCC[C@H](NC(=O)[C@H](C)NC(=O)[C@H](C)NC(=O)[C@H](CCC(N)=O)NC(=O)[C@@H]2CCCCNC(=O)CC[C@H](NC(=O)[C@H](CO)NC(=O)[C@H](Cc3ccc(O)cc3)NC(=O)[C@H](CC(=O)O)NC(=O)[C@H](CO)NC(=O)[C@@H](NC(=O)[C@H](Cc3ccccc3)NC(=O)[C@@H](NC(=O)CNC(=O)[C@H](CCC(N)=O)NC(=O)C(C)(C)NC(=O)[C@@H](N)Cc3c[nH]cn3)[C@@H](C)O)[C@@H](C)O)C(=O)N[C@@H](Cc3ccc(O)cc3)C(=O)N[C@@H](CC(C)C)C(=O)N[C@@H](CC(=O)O)C(=O)N2)C(=O)N[C@@H](CCC(=O)O)C(=O)N[C@@H](Cc2ccccc2)C(=O)N[C@H](C(=O)N[C@@H](CCC(N)=O)C(=O)N[C@@H](Cc2c[nH]c3ccccc23)C(=O)N[C@@H](CC(C)C)C(=O)N[C@@H](CC(C)C)C(=O)N[C@@H](CCC(N)=O)C(=O)N[C@H](C(N)=O)[C@@H](C)O)[C@@H](C)CC)[C@@H](O)[C@H](O)[C@H]1O [EU-A1745] (H-H[Aib]QGTFTSDYSEYLDKQAAK(βGlcA(1-O-hexadecyl))EFIQWLLQT-NH2; lactam 12-16; N-terminus assumed)
